Reference: the NIST ThermoML archive (doi:10.1016/j.jct.2004.06.004)

Assays:
[1] = xn = mol fraction of the nth substance listed; settings: 101.3 kPa, Liquid
[2] = Liquid

O [water] + NCCO
[1], x2 = 0
Settings	viscosity [mPa·s]
303.15 K	0.7975
308.15 K	0.7195
313.15 K	0.6532
318.15 K	0.5963
323.15 K	0.5471

NCCO [2-aminoethan-1-ol]
Settings	mass density [kg/m3]
[2], 293.15 K, 101.33 kPa, Pycnometric method	1012.1

[2], 101.3 kPa
Settings	viscosity [mPa·s]
298.15 K	18.91
303.15 K	14.71
308.15 K	11.82
313.15 K	9.27
318.15 K	7.52
323.15 K	6.21

NCCO [2-aminoethan-1-ol] + O
viscosity [mPa·s], [1]
Settings	x1 = 0.03219	x1 = 0.06969	x1 = 0.1138	x1 = 0.1666	x1 = 0.2306	x1 = 0.3102	x1 = 0.4116	x1 = 0.5452	x1 = 0.7296	x1 = 1
303.15 K	1.081	1.448	2.041	2.93	4.28	6.27	9.25	12.42	14.56	14.71
308.15 K	0.962	1.282	1.784	2.513	3.61	5.23	7.3	9.75	11.62	11.82
313.15 K	0.865	1.149	1.536	2.085	2.932	4.23	5.88	7.82	9.26	9.27
318.15 K	0.779	1.01	1.345	1.786	2.472	3.51	4.92	6.53	7.57	7.52
323.15 K	0.703	0.907	1.173	1.553	2.125	2.925	3.95	5.24	6.06	6.21

CCOCCO [2-ethoxyethan-1-ol]
[2]
Settings	mass density, 293.15 K [kg/m3]	viscosity, 293.15 K [mPa·s]	viscosity, 303.15 K [mPa·s]	viscosity, 308.15 K [mPa·s]	viscosity, 313.15 K [mPa·s]	viscosity, 318.15 K [mPa·s]	viscosity, 323.15 K [mPa·s]
101.3 kPa	–	2.077	1.612	1.413	1.24	1.166	1.026
101.33 kPa	929.7	–	–	–	–	–	–

CCOCCO [2-ethoxyethan-1-ol] + O
viscosity [mPa·s], [1]
Settings	x1 = 0.0201	x1 = 0.04419	x1 = 0.07339	x1 = 0.1098	x1 = 0.1561	x1 = 0.2172	x1 = 0.3015	x1 = 0.4252	x1 = 0.6247	x1 = 1
303.15 K	1.046	1.384	1.709	2.135	2.516	2.711	2.858	2.747	2.266	1.612
308.15 K	0.924	1.177	1.472	1.769	2.057	2.248	2.329	2.2	1.951	1.413
313.15 K	0.814	1.008	1.238	1.499	1.711	1.864	1.947	1.867	1.676	1.24
318.15 K	0.71	0.898	1.108	1.322	1.521	1.663	1.723	1.632	1.516	1.166
323.15 K	0.651	0.791	0.958	1.164	1.339	1.45	1.55	1.486	1.361	1.026

O [water] + COCCO
[1], x2 = 0
Settings	viscosity [mPa·s]
303.15 K	0.7975
308.15 K	0.7195
313.15 K	0.6532
318.15 K	0.5963
323.15 K	0.5471

O [water] + CCOCCO
[1], x2 = 0
Settings	viscosity [mPa·s]
303.15 K	0.7975
308.15 K	0.7195
313.15 K	0.6532
318.15 K	0.5963
323.15 K	0.5471

COCCO [2-methoxyethan-1-ol] + O
viscosity [mPa·s], [1]
Settings	x1 = 0.0247	x1 = 0.05399	x1 = 0.08909	x1 = 0.1321	x1 = 0.1858	x1 = 0.2551	x1 = 0.3475	x1 = 0.4773	x1 = 0.6726	x1 = 1
303.15 K	1.08	1.353	1.656	1.979	2.247	2.396	2.418	2.296	1.825	1.375
308.15 K	0.953	1.165	1.459	1.652	1.888	2.016	2.051	1.941	1.528	1.126
313.15 K	0.811	0.985	1.205	1.367	1.529	1.668	1.733	1.6	1.323	0.942
318.15 K	0.735	0.885	1.031	1.176	1.368	1.457	1.53	1.41	1.133	0.832
323.15 K	0.667	0.796	0.926	1.056	1.226	1.322	1.381	1.258	1.05	0.757

COCCO [2-methoxyethan-1-ol]
[2]
Settings	mass density, 293.15 K [kg/m3]	viscosity, 293.15 K [mPa·s]	viscosity, 303.15 K [mPa·s]	viscosity, 308.15 K [mPa·s]	viscosity, 313.15 K [mPa·s]	viscosity, 318.15 K [mPa·s]	viscosity, 323.15 K [mPa·s]
101.3 kPa	–	1.991	1.375	1.126	0.942	0.832	0.757
101.33 kPa	965.2	–	–	–	–	–	–

Settings	viscosity [mPa·s]
[2], 293.15 K, 101.33 kPa, Capillary tube (Ostwald / Ubbelohde) method	1.991
